Values after ≈ are worked out from the molar mass of the structure shown. Values joined by “and” are separate entries in the source; they are usually repeats but may differ in a detail not shown here. Equal entries are not always repeated. Where two headings read alike, the source gives them in different places. Where a SMILES comes first, the peptide text is derived from it. Bridges are numbered along the chain shown (N, C = ends).
Legend:
[1] = test system: Pseudomonas aeruginosa CICC21630
[2] = test system: inner membrane of E. tarda; assay: Inner membrane penetration, PI staining, flow cytometry; format: cell-based, Edwardsiella tarda
Procedure: After washing twice with PBS, the cells were incubated with PI (50 μg/mL) for 15 min and analyzed using a FACS Calibur Flow Cytometer (BD, San Jose, CA, USA).

[3] = LPS binding, BODIPY-TR-cadaverine displacement; parameters: species or system E. coli; conditions: 0.5 µM LPS, 5 μM BC, Tris buffer pH 7.4; 0.049 μM to 50 μM; excitation/emission 580/620 nm
E. tarda [4] = format: cell-based, Edwardsiella tarda
Procedure: (§1) All tests were conducted in triplicate.

E. tarda [5] = assay: Time-kill curves; format: cell-based, Edwardsiella tarda; conditions: 10^5 CFU/mL, 28 °C, 200 rpm, plate count every 2 h
Procedure: Time–kill curves for N6 and N6NH2 were determined against E. tarda. In brief, the mid-log phase bacterial cells (10^5 CFU/mL) were mixed with different concentrations of peptides (1 × and 2 × and 4 × MIC) and cultured at 28 °C (200 rpm). Samples of 100 μL were taken from the mixture at intervals of 2 h, continuously diluted, and counted on the plate.

Staphylococcus hyicus = assay: microbe, parasite or virus in culture; format: cell-based
Procedure: as §1

E. tarda genomic DNA = assay: Competitive binding of genomic DNA with ethidium bromide; parameters: species or system Edwardsiella tarda; conditions: peptide 160 μg/mL added to DNA (10 μg)-EB; 30 min at 37 °C
Procedure: E. tarda genomic DNA was dissolved in TE buffer to a concentration of 100 μg/mL; 1.5 μL of EB (100 μg/mL) solution was mixed with 100 μL of DNA solution and then added into 96-well plates. The DNA-EB mixture was incubated in the dark at 37 °C for 10 min. Varying concentrations of peptides (0, 40, 80, and 160 μg/mL, 100 μL) were then added to the DNA-EB solution (100 μL), and the fluorescence spectra were measured for each test solution after 30 min of incubation at 37 °C in the dark. Infinite M200 PRO was used for sample determination at 535 nm, and the spectra were recorded from 550 to 750 nm.
To determine the competitive binding of EB against peptides with bacterial DNA, 100 μL of DNA (50 μg/mL) solution was mixed with 100 μL of peptide solution (80 μg/mL) and incubated at 37 °C for 10 min. Then aliquots of stock solution of EB (0, 25, 50, and 100 μg/mL, 1.5 μL) were added to the fixed DNA-peptide solution and incubated for 30 min at 37 °C in the dark. The fluorescence spectra were measured as described above.

E. tarda [6] = assay: pH stability (residual antibacterial activity, inhibition zone); format: physicochemical, Edwardsiella tarda; conditions: pH values of 2–10, 3 h incubation; N6 128 μg/mL, norfloxacin 10 μg/mL; inhibition zone method vs E. tarda
Procedure: (§2) To evaluate the thermal stability of peptides, N6 and N6NH2 were incubated for 1 h at 4, 20, 40, 60, 80 and 100 °C. To measure the pH stability, peptides were incubated for 3 h in 100 mM glycine-HCl buffer (pH 2.0), sodium acetate buffer (pH 4.0), sodium phosphate buffer (pH 6.0), Tris-HCl buffer (pH 8.0) or glycine-NaOH buffer (pH 10.0). In addition, peptides were incubated for 4 h at 37 °C in pepsin (3,000 U/mg, pH 2.0) and trypsin (250 U/mg, pH 8.0) (10:1, w/w) solutions, respectively. […] After treatment, 30 μL of solutions were taken out to determine the antibacterial activity of peptides against E. tarda by the inhibition zone method. The untreated peptides were used as the control. All tests were conducted in triplicate.

E. coli CVCCO157 = conditions: broth microdilution, MHB, 1 × 10^5 CFU/mL, 37 °C 18–24 h, n = 3; some N6 data from ref 19
fish genome DNA = assay: Gel migration (DNA binding) assay; conditions: O. niloticus genomic DNA, Supplementary Figure S2
Procedure: The genomic DNA of E. tarda or O. niloticus was incubated for 10 min at room temperature with different concentrations of N6 and N6NH2 in binding buffer (5% glycerol, 10 mM Tris-HCl, pH 8.0, 20 mM KCl, 1 mM EDTA, 1 mM dithiothreitol and […] BSA). The mass ratios of peptides and DNA were 0, 0.5, 1, 2, 4, 6, 8, and 10, respectively. The migration of DNA was evaluated by electrophoresis on a 0.7% agarose gel.

[7] = test system: Salmonella typhimurium CVCC533
E. tarda [8] = assay: Thermal stability (residual antibacterial activity, inhibition zone); format: physicochemical, Edwardsiella tarda; conditions: incubated 1 h at 100 °C; N6 128 μg/mL; inhibition zone method vs untreated peptide; triplicate
Procedure: as §2

[9] = broth microdilution, MHB, 1 × 10^5 CFU/mL, 37 °C 18–24 h, n = 3, some N6 data from ref 19

`CC(C)[C@@H]1NC(=O)CNC(=O)[C@H](CC(N)=O)NC(=O)[C@H](CCCNC(=N)N)NC(=O)[C@H](Cc2ccc(O)cc2)NC(=O)[C@H](C(C)C)NC(=O)[C@@H](NC(=O)[C@@H](NC(=O)[C@H](CC(N)=O)NC(=O)[C@H](Cc2c[nH]c3ccccc23)NC(=O)[C@H](C)NC(=O)[C@H](Cc2ccccc2)NC(=O)CN)C(C)C)CSSC[C@@H](C(=O)N[C@@H](Cc2c[nH]cn2)C(=O)N[C@@H](CCCNC(=N)N)C(=O)N[C@@H](CCCNC(=N)N)C(=O)N[C@@H](C)C(=O)N[C@@H](CC(N)=O)C(=O)O)NC(=O)[C@H](C(C)C)NC(=O)[C@H](CCCNC(=N)N)NC1=O` [Peptide N6] (H-GFAWNVCVYRNGVRVCHRRAN-OH; disulfide 7-16; N-terminus assumed) gave an MIC (S. enteritidis CVCC3377; CVCC3377) of 0.1 µM, an MIC (S. enteritidis CVCC3377; [9]) of 0.25 µg/mL and an MIC (E. coli CVCC1515; CVCC1515) of 0.4 µM. For the same compound, the MIC (E. coli CVCC1515; [9]) was 1 µg/mL, the MIC ([1]; CICC21630) was 1.6 µM and the MIC [1, 9] was 4 µg/mL. The MIC (S. pullorum CVCC1802; CVCC1802) was 0.2 µM, the MIC (S. pullorum CVCC1802; [9]) was 0.5 µg/mL and the MIC (S. hyicus 437-2) was 25.8 µM. The MIC (S. hyicus 437-2; [9]) was 64 µg/mL, the “percentage of E. tarda stained with PI” value ([2]; 4 × MIC, 120 min, 1 × 10^8 CFU/mL, PI 50 μg/mL, flow cytometry) was 77.7% and the “percentage of E. tarda stained with PI” value ([2]; within 30 min, 1×, 2× and 4× MIC) was “less than 5%”. For the same compound, the “binding to LPS (displacement of BC probe)” value [3] was “potent LPS-binding affinity”, the MIC (Escherichia coli CVCC195; CVCC195) was 0.2 µM and the MIC (Escherichia coli CVCC195; [9]) was 0.5 µg/mL. The MBC (E. tarda [4]) was 12.8 µg/mL (≈ 5.17 µM), the “time at which bacteria were killed (time-kill curve)” value (E. tarda [5]; 2 × MIC) was ≤ 2 h and the “time at which bacteria were killed (time-kill curve)” value (E. tarda [5]; 4 × MIC) was ≤ 2 h. The MIC (S. typhimurium ATCC14028; ATCC14028) was 0.8 µM, the MIC (S. typhimurium ATCC14028; [9]) was 2 µg/mL and the MIC (E. coli CVCC25922; CVCC25922) was 0.1 µM. The MIC (E. coli CVCC25922; [9]) was 0.25 µg/mL, the MIC (Staphylococcus hyicus) was 16 to 64 µg/mL and the “competition with EB for binding to E. tarda genomic DNA (quenching of DNA-EB fluorescence)” value (E. tarda genomic DNA) was “the binding affinity of N6 was stronger than that of N6NH2”. For the same compound, the MIC (S. pullorum CVCC1789; CVCC1789) was 0.2 µM, the MIC (S. pullorum CVCC1789; [9]) was 0.5 µg/mL and the MIC (S. hyicus 15095) was 6.46 µM. For the same compound, the MIC (S. hyicus 15095; [9]) was 16 µg/mL, the “antibacterial activity at different pH values” (E. tarda [6]) was “strong antibacterial activity” and the MIC (E. coli CVCCO157) was 0.5 μg/mL and 0.2 μM. For the same compound, the “mass ratio at which migration of fish genome DNA is prevented” value (fish genome DNA) was 2, the MIC [7, 9] was 1 µg/mL and the MIC ([7]; murium CVCC533) was 0.4 µM. The “decrease of antimicrobial activity against E. tarda after heating” value (E. tarda [8]) was 6.7%.
